Earlier results on one molecule are cited in patent publication US20030143648A1, “Enzyme activity profiles” (priority 2001, published 2003).

The series concerns FAAH. Particulars: pH 8.0.

`CCCCCCCC/C=C\CCCCCCCC(N)=O` [oleamide]: the “kcat of FAAH for oleamide” value was “approximately 2 s −^1”.
